Data: article PMC11434354, “Metabolic and Pharmacokinetic Profiling Studies of N, N-Dimethylaniline-Heliamine in Rats by UHPLC-Q-Orbitrap MS/MS” (Molecules, 2024)
Read-outs that look alike come from different tables or passages of the source.

What was measured:
[1] = Pharmacokinetic study of DH in rats after oral and intravenous administration (non-compartmental analysis); assay type: in vivo, male Sprague–Dawley (SD) rats; conditions: for MRT last: read-out: MRT0–t; for MRT inf: read-out: MRT0–∞; for half-life: read-out: T1/2 (terminal half-life) (converted)
Experimental: The Xinjiang Medical University (Xinjiang, China) provided twelve male Sprague–Dawley (SD) rats (weight 200 ± 20 g). The Animal Experimentation Ethics Committee of Xinjiang Medical University gave its approval to all animal experiments. DH was created using a mixture consisting of 2% ethanol, 8% Kolliphor, and 90% distilled water. Twelve rats were selected randomly and divided into two groups. Before administering the oral dose, the rats were fasted for 12 h but were allowed access to water. Each rat in the oral group was orally given 19.2 mg/kg of DH. Blood samples were collected from their ophthalmic veins at 0, 0.25, 0.5, 1, 1.5, 2, 4, 8, 12, and 24 h for the oral study. In the intravenous group, each rat was given an intravenous tail injection of 1.9 mg/kg of DH. Blood was collected from their ocular veins at 0, 0.1, 0.25, 0.5, 0.75, 1, 1.5, 3.4, 7.5, 12, and 24 h for further analysis. The collected plasma was thereafter subjected to centrifugation (14,000 rpm) for 10 min in a 1.5 mL polyethylene collection tube with EDTA. Following centrifugation, the supernatant was stored in a refrigerator at –80 °C.
Rat plasma samples were assessed for DH using a Thermo Fisher Scientific Q Exactive Plus Orbitrap MS and a Dionnex Ultimate 3000 RSL nano System (Thermo Fisher Scientific, Bremen, Germany). Chromatographic separation was performed with a pre-column (1.7 µm) and an ACQUITY UHPLC BEH C18 column (2.1 × 75 mm, 1.7 µm). The procedure utilized a 10 µL injection volume and was carried out for 5 min at 0.2 mL/min isocratic (70%A (0.1% formic acid in water): 30%B (acetonitrile)). The temperature of the RS autosampler was maintained at 10 °C, and the column was set at 35 °C. Positive electrospray ionization (ESI) and the Parallel Reaction Monitor (PRM) mode were employed to identify DH and the IS. AGC targets were set at 1 × 10^6, the maximum iteration time at 100 ms, the spray voltage at 3.2 kV, the capillary temperature at 320 °C, the S-lens RF level at 55, and 10 and 38 for the IS of the high collision dissociation cell of DH were the MS parameters used. The PRM transitions for DH and IS were 313.19/192.10 (m/z) and 400.18/310.12 (m/z), respectively.
Dissolve PK samples were stored at −80 °C at room temperature. We added 10 µL of 30% acetonitrile water and vortexed it for 3 s. We then added 10 µL of IS and vortexed it for 3 s. Then, 300 µL of acetonitrile was added to the above plasma, vortexed for 1 min, and centrifuged for 7 min. The mixture supernatant was collected and blown dry at 40 °C under nitrogen. Blow-dried samples were re-dissolved in 100 μL of 30% acetonitrile in water and centrifuged for 7 min.
Twelve male SD rats, weighing […], were used to perform PK studies on DH. SD rats fasted for 12 h before administration, but the water was freely available. Normal drinking and eating resumed four hours after administration. To study the bioavailability and PK parameters of DH, rats were randomly divided into two groups. The dose administered was 1.9 mg/kg for the intravenous group and 19.2 mg/kg for the oral administration group. Oral bioavailability was calculated using Equation (2) as follows:Oral bioavailability (%) = (AUCp.o. × Dosei.v./AUCi.v. × Dosep. o.) × 100%(2)
The Q Exactive Plus Orbitrap MS data were acquired using the Thermo Xcalibur 4.2. software (Thermo Fisher Scientific, Waltham, MA, USA). The Qual Browser was used to extract ion chromatograms for screening candidate metabolites with a mass tolerance of 5 ppm and a mass precision of 4 decimals. In addition, MS/MS fragment ions were extracted for structural confirmation of candidate metabolites. The Qual Browser was used for the quantification of DH in rat plasma. Pharmacokinetic parameters were processed using the non-compartmental pharmacokinetic data analysis software program of MaS Studio 1.5.2.14 stable (Shanghai Boca Pharmaceutical Technology Co., Shanghai, China). Finally, the results were described as arithmetic mean ± SD.

[2] = Long-term storage stability of DH stock solutions; assay type: physicochemical
Experimental: Although acetonitrile precipitates most of the protein, plasma samples contain phospholipids, metabolites, etc., that interfere with the detection of DH and IS. Specificity was mainly examined at DH and IS retention times without interference peaks in blank plasma. In addition, samples tested after administration should not show interfering peaks at the DH and IS peak times. The standard curves were made up of 8 nonzero analyte points, and the linearity was tested. The correlation of peak area (analyte/IS) with the labeled plasma concentration was plotted for regression analysis. This analyte was predicted to have a correlation coefficient (r^2) of more than 0.99 with the corresponding standard curve. The relative standard deviation (RSD) and relative error (RE) values were calculated by measuring six repeated QC samples on the same day to evaluate the intra-day precision and accuracy. Inter-day precision and accuracy were characterized by RSD and RE, respectively. The recoveries were determined by examining the ratio of the peak areas of DH before and after extraction. The matrix effect is the ratio of the peak area of DH added to plasma and DH dissolved in the solvent. The stability evaluation should guarantee that the concentration of the analyte remains unchanged throughout the sample preparation and analysis process, as well as during storage. Stability studies include long-term storage stability at −80 °C (1, 7 and 15 days); repeated freeze–thaw stability; autosampler stability; room temperature stability; and long-term storage stability of stock solutions.

[3] = tested on: Sarcoplasmic reticulum RyR2Ca^2+ channels; design: method as in doi:10.13005/bpj/1892; conditions: cited from earlier work
[4] = design: method as in doi:10.37547/TAJMSPR/Volume02Issue07-17; conditions: rats, compared with verapamil; cited from earlier work
[5] = I.V. 1.9 mg/kg, n = 6, mean ± SD
[6] = P.O. 19.2 mg/kg, n = 6, mean ± SD
[7] = male, Sprague-Dawley, rat, plasma, iv, I.V. 1.9 mg/kg, n = 6, mean ± SD
[8] = male, Sprague-Dawley, rat, plasma, po, P.O. 19.2 mg/kg, n = 6, mean ± SD

COc1cc2c(cc1OC)C(c1ccc(N(C)C)cc1)NCC2 (stereo not drawn) [DH, N, N-dimethylaniline-heliamine]
AUC0–t [1, 5]: 439 ± 30.1 ng·h/mL | AUC0–∞ [1, 5]: 495 ± 36.4 ng·h/mL | Vd (apparent volume of distribution) ([1]; I.V. 1.9 mg/kg, n = 6, mean ± SD, 1.9 mg/kg): 15,514.58 ± 2159.74 mL/kg | AUC0–t [1, 6]: 707 ± 265 ng·h/mL | AUC0–∞ [1, 6]: 748 ± 279 ng·h/mL | CL (clearance) [1, 6]: 30,148.65 ± 15,354.27 mL/h/kg | Vd (apparent volume of distribution) [1, 6]: 126,728.09 ± 56,867.09 mL/kg | Vd ([1]; male, Sprague-Dawley, rat, plasma, iv, 1.9 mg/kg, I.V. 1.9 mg/kg, n = 6, mean ± SD, read-out: Vd (apparent volume of distribution)): 15.1 L/kg | Cmax [1, 7]: 183 ± 33.6 ng/mL | clearance ([1]; male, Sprague-Dawley, rat, plasma, iv, I.V. 1.9 mg/kg, n = 6, mean ± SD, read-out: CL (clearance) (converted)): 64.3 mL/min/kg | MRT last [1, 7]: 2.49 ± 0.33 h | MRT inf [1, 7]: 3.56 ± 0.26 h | half-life [1, 7]: 2.79 ± 0.34 h | bioavailability ([1]; male, Sprague-Dawley, rat, plasma, oral, P.O. 19.2 mg/kg vs I.V. 1.9 mg/kg, read-out: Fabs (absolute oral bioavailability)): 16.1% | Cmax [1, 8]: 121 ± 42.4 ng/mL | Tmax [1, 8]: 1.5 h | MRT last [1, 8]: 4.07 ± 0.34 h | MRT inf [1, 8]: 4.76 ± 0.4 h | half-life [1, 8]: 2.96 ± 0.32 h | Accuracy, Stock solution ([2]; nominal concentration 10 ng/mL): 104.96% | Accuracy, Stock solution ([2]; nominal concentration 100 ng/mL): 99.49% | Accuracy, Stock solution ([2]; nominal concentration 500 ng/mL): 96.24% | inhibition of sarcoplasmic reticulum RyR2 Ca2+ channels [3]: inhibited | Acute toxicity parameters [4]: more than six times lower than those of verapamil
